For this experiment, the target named is T1, LPA3 receptor (Homo sapiens, UniProt Q9UBY5).
T1 sequence (Q9UBY5 1-353): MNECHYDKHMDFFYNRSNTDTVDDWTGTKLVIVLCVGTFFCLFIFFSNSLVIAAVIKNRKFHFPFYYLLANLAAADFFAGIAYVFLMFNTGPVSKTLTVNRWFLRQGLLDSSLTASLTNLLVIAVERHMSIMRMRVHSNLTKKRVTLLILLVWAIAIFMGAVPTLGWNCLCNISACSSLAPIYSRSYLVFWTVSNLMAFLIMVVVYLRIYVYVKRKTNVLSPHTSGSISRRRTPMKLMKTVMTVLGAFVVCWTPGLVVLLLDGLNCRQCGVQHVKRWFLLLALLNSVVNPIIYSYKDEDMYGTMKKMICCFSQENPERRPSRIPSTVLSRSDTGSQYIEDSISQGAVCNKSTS
The experiment in a line: intracellular calcium, Fura-2 AM, induced HEK […] Flp-In TREx cells. The format is cell-based. For orientation: Calcium flux is commonly read through the fluorescence of an indicator in the cells.

The text below walks through data of publication doi:10.1101/2025.03.18.644008v1 (biorxiv, 2025).

The term EC50 denotes the midpoint of the concentration-response curve.

On to `CCCCCCCC/C=C\CCCCCCCC(=O)OC[C@@H](COP(O)(O)=S)OC` [OMPT], for which the concentration giving a half-maximal response (EC50) is approximately 0.06 µM.

As for `Fc1ccc([C@@H]2CCNC[C@H]2COc2ccc3c(c2)OCO3)cc1` [paroxetine], the EC50 was approximately 30 µM.
